The subject of data set [1] is recombinant NL4-3 virus (nef section replaced with Renilla luciferase gene) in MT-2 cells. The data set is described as follows: HIV cell culture assay (antiviral activity, luciferase readout). The format is cell-based. The following applies: Renilla, NL43, MT-2 cells infected for 4-5 days with recombinant NL4-3 Renilla luciferase virus, serial dilutions of compound. The essentials: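 Test compound in serial dilution was present while MT-2 cells were infected for 4–5 days with recombinant NL4-3 virus made in 293T cells. Antiviral activity was quantified as Renilla luciferase activity, read with a live-cell substrate. EC50 came from the median-effect equation.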

Data set [2] can be described thus: Compound cytotoxicity, XTT-based colorimetric assay. The format is cell-based. Particulars: human, uninfected MT2 cells, day 4, XTT. The essentials: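 Run under the antiviral-assay protocol but without virus. Viability was read on day 4 and CC50 values were derived from the readout.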
A general note: Tetrazolium assays rely on reduction of a dye to a coloured formazan, in cell work by metabolically active cells.

Structures are written as SMILES. Some results are limits rather than exact numbers.

The term EC50 denotes the concentration at which the effect is half-maximal. By CC50 is commonly meant the concentration giving 50% cytotoxicity. A low value points to greater toxicity to the cells. In the case of `CC(C)c1ccn(CC(=O)N[C@@H](Cc2cc(F)cc(F)c2)c2nc3cc(-c4ccccc4F)ccc3c(=O)n2-c2ccc(Cl)c3c(NS(=O)(=O)C4CC4)nn(CC(F)F)c23)n1` (atropisomer, axis not shown) [Example 135, (S)-N-(1-(3-(4-chloro-3-(cyclopropanesulfonamido)-1-(2,2-difluoroethyl)-1H-indazol-7-yl)-7-(2-fluorophenyl)-4-oxo-3,4-dihydroquinazolin-2-yl)-2-(3,5-difluorophenyl)ethyl)-2-(3-isopropyl-1H-pyrazol-1-yl)acetamide], in data set [1], the concentration giving a half-maximal response (EC50) is 13 nM. Also, the 50% cytotoxic concentration (CC50) at 4 day in data set [2] is > 1000 nM.
For `CS(=O)(=O)Nc1nn(CC(F)F)c2c(-n3c([C@H](Cc4cc(F)cc(F)c4)NC(=O)Cn4nc(C(F)F)c5c4C(F)(F)[C@@H]4C[C@H]54)nc4cc(-c5ccccc5F)ccc4c3=O)ccc(Cl)c12` [Example 183, N-((S)-1-(3-(4-chloro-1-(2,2-difluoroethyl)-3-(methylsulfonamido)-1H-indazol-7-yl)-7-(2-fluorophenyl)-4-oxo-3,4-dihydroquinazolin-2-yl)-2-(3,5-difluorophenyl)ethyl)-2-((3bS,4aR)-3-(difluoromethyl)-5,5-difluoro-3b,4,4a,5-tetrahydro-1H-cyclopropa[3,4]cyclopenta[1,2-c]pyrazol-1-yl)acetamide], in that order: 0.39 nM and > 500 nM.
On to `Cn1nc(NS(C)(=O)=O)c2c(Cl)ccc(-n3c([C@H](Cc4cc(F)cc(F)c4)NC(=O)Cn4nc(C(F)F)c5c4C(F)(F)[C@@H]4C[C@H]54)nc4cc(-c5cccnc5)ccc4c3=O)c21` (atropisomer, axis not shown; (aR)) [Example 71, N-((S)-1-(3-(4-chloro-1-methyl-3-(methylsulfonamido)-1H-indazol-7-yl)-4-oxo-7-(pyridin-3-yl)-3,4-dihydroquinazolin-2-yl)-2-(3,5-difluorophenyl)ethyl)-2-((3bS,4aR)-3-(difluoromethyl)-5,5-difluoro-3b,4,4a,5-tetrahydro-1H-cyclopropa[3,4]cyclopenta[1,2-c]pyrazol-1-yl)acetamide], for which, in data set [1], the half-maximal effective concentration (EC50) came out at 0.18 nM. Moreover, in data set [2], the cytotoxic concentration (CC50) at 4 day is > 1000 nM.
For `Cc1cc(Cl)ccc1-c1ccc2c(=O)n(-c3ccc(Cl)c4c(NS(C)(=O)=O)nn(C)c34)c([C@H](Cc3cc(F)cc(F)c3)NC(=O)Cn3nc(C(F)F)c4c3C(F)(F)[C@@H]3C[C@H]43)nc2c1` (atropisomer, axis not shown; (aR)) [Example 90], in that order: 5.7 nM and > 1000 nM.
With `Cn1nc(NS(C)(=O)=O)c2c(Cl)ccc(-n3c([C@H](Cc4cc(F)cc(F)c4)NC(=O)Cn4nc(C(F)F)c5c4C(F)(F)[C@@H]4C[C@H]54)nc4cc(-c5c(F)cccc5F)ccc4c3=O)c21` [Example 185, N-((S)-1-(3-(4-chloro-1-methyl-3-(methylsulfonamido)-1H-indazol-7-yl)-7-(2,6-difluorophenyl)-4-oxo-3,4-dihydroquinazolin-2-yl)-2-(3,5-difluorophenyl)ethyl)-2-((3bS,4aR)-3-(difluoromethyl)-5,5-difluoro-3b,4,4a,5-tetrahydro-1H-cyclopropa[3,4]cyclopenta[1,2-c]pyrazol-1-yl)acetamide], the concentration giving a half-maximal response (EC50) in data set [1] worked out at 0.62 nM. The CC50 at 4 day in data set [2] is > 1000 nM.
For `CCS(=O)(=O)c1cccc(-c2ccc3c(=O)n(-c4ccc(Cl)c5c(NS(C)(=O)=O)nn(C)c45)c([C@H](Cc4cc(F)cc(F)c4)NC(=O)Cn4nc(C(F)F)c5c4C(F)(F)[C@@H]4C[C@H]54)nc3c2)c1` (atropisomer, axis not shown; (aR)) [Example 121, N-((S)-1-(3-(4-chloro-1-methyl-3-(methylsulfonamido)-1H-indazol-7-yl)-7-(3-(ethylsulfonyl)phenyl)-4-oxo-3,4-dihydroquinazolin-2-yl)-2-(3,5-difluorophenyl)ethyl)-2-((3bS,4aR)-3-(difluoromethyl)-5,5-difluoro-3b,4,4a,5-tetrahydro-1H-cyclopropa[3,4]cyclopenta[1,2-c]pyrazol-1-yl)acetamide], in that order: 0.11 nM and > 500 nM.
Consider `COc1cccc(-c2ccc3c(=O)n(-c4ccc(S(=O)(=O)N5CCOCC5)cc4)c([C@H](Cc4cc(F)cc(F)c4)NC(=O)Cn4ccc(C5CC5)n4)nc3c2)n1` [Example 55, (S)-2-(3-cyclopropyl-1H-pyrazol-1-yl)-N-(2-(3,5-difluorophenyl)-1-(7-(6-methoxypyridin-2-yl)-3-(4-(morpholinosulfonyl)phenyl)-4-oxo-3,4-dihydroquinazolin-2-yl)ethyl)acetamide], for which the EC50 in data set [1] stood at 8.7 nM. Further, the 50% cytotoxic concentration (CC50) at 4 day in data set [2] is > 1000 nM.
Regarding `O=C(Cn1ccc(C2CC2)n1)N[C@@H](Cc1cc(F)cc(F)c1)c1nc2cc(-c3ccccc3Oc3ccccc3)ccc2c(=O)n1-c1ccc(S(=O)(=O)N2CCOCC2)cc1` [Example 42, (S)-2-(3-cyclopropyl-1H-pyrazol-1-yl)-N-(2-(3,5-difluorophenyl)-1-(3-(4-(morpholinosulfonyl)phenyl)-4-oxo-7-(2-phenoxyphenyl)-3,4-dihydroquinazolin-2-yl)ethyl)acetamide], the EC50 in data set [1] turned out to be 54 nM. Further, the cytotoxic concentration (CC50) at 4 day in data set [2] is > 1000 nM.
Consider `CS(=O)(=O)Nc1nn(CC(F)(F)F)c2c(-n3c([C@H](Cc4cc(F)cc(F)c4)NC(=O)Cn4nc(C(F)F)c5c4C(F)(F)[C@@H]4C[C@H]54)nc4cc(-c5ncccn5)ccc4c3=O)ccc(Cl)c12` [Example 163, N-((S)-1-(3-(4-chloro-3-(methylsulfonamido)-1-(2,2,2-trifluoroethyl)-1H-indazol-7-yl)-4-oxo-7-(pyrimidin-2-yl)-3,4-dihydroquinazolin-2-yl)-2-(3,5-difluorophenyl)ethyl)-2-((3bS,4aR)-3-(difluoromethyl)-5,5-difluoro-3b,4,4a,5-tetrahydro-1H-cyclopropa[3,4]cyclopenta[1,2-c]pyrazol-1-yl)acetamide], for which, in data set [1], the EC50 was 0.046 nM. Besides, in data set [2], the CC50 at 4 day was > 500 nM.
As to `Cn1nc(NS(C)(=O)=O)c2c(Cl)ccc(-n3c([C@H](Cc4cc(F)cc(F)c4)NC(=O)Cn4nc(C(F)F)c5c4C(F)(F)[C@@H]4C[C@H]54)nc4cc(-c5cccc(F)c5)ccc4c3=O)c21` (atropisomer, axis not shown; (aR)) [Example 30, N-((S)-1-(3-(4-chloro-1-methyl-3-(methylsulfonamido)-1H-indazol-7-yl)-7-(3-fluorophenyl)-4-oxo-3,4-dihydroquinazolin-2-yl)-2-(3,5-difluorophenyl)ethyl)-2-((3bS,4aR)-3-(difluoromethyl)-5,5-difluoro-3b,4,4a,5-tetrahydro-1H-cyclopropa[3,4]cyclopenta[1,2-c]pyrazol-1-yl)acetamide], the EC50 in data set [1] came to 0.88 nM. In data set [2], the CC50 at 4 day is > 1000 nM.
For `Cn1nc(NS(C)(=O)=O)c2c(Cl)ccc(-n3c([C@H](Cc4cc(F)cc(F)c4)NC(=O)Cn4nc(C(F)F)c5c4C(F)(F)[C@@H]4C[C@H]54)nc4cc(-c5ccccc5F)ccc4c3=O)c21` (single isomer, unassigned) [Example 2], in that order: 0.53 nM and > 1000 nM.
Turning to `Cc1cccc(C)c1-c1ccc2c(=O)n(-c3ccc(S(=O)(=O)N4CCOCC4)cc3)c([C@H](Cc3cc(F)cc(F)c3)NC(=O)Cn3ccc(C4CC4)n3)nc2c1` [Example 49, (S)-2-(3-cyclopropyl-1H-pyrazol-1-yl)-N-(2-(3,5-difluorophenyl)-1-(7-(2,6-dimethylphenyl)-3-(4-(morpholinosulfonyl)phenyl)-4-oxo-3,4-dihydroquinazolin-2-yl)ethyl)acetamide], in data set [1], the EC50 turned out to be 30 nM. In addition, the 50% cytotoxic concentration (CC50) at 4 day in data set [2] was > 1000 nM.
Turning to `Cn1nc(NS(C)(=O)=O)c2c(Cl)ccc(-n3c([C@H](Cc4cc(F)cc(F)c4)NC(=O)Cn4nc(C(F)F)c5c4C(F)(F)[C@@H]4C[C@H]54)nc4cc(-c5cncnc5)ccc4c3=O)c21` (atropisomer, axis not shown; (aR)) [Example 84, N-((S)-1-(3-(4-chloro-1-methyl-3-(methylsulfonamido)-1H-indazol-7-yl)-4-oxo-7-(pyrimidin-5-yl)-3,4-dihydroquinazolin-2-yl)-2-(3,5-difluorophenyl)ethyl)-2-((3bS,4aR)-3-(difluoromethyl)-5,5-difluoro-3b,4,4a,5-tetrahydro-1H-cyclopropa[3,4]cyclopenta[1,2-c]pyrazol-1-yl)acetamide], the EC50 in data set [1] was 0.068 nM. Besides, the CC50 at 4 day in data set [2] was > 1000 nM.
Regarding `CC(C)n1ccc(CC(=O)N[C@@H](Cc2cc(F)cc(F)c2)c2nc3cc(-c4ccccc4F)ccc3c(=O)n2-c2ccc(Cl)c3c(NS(C)(=O)=O)nn(C)c23)n1` [Example 155, (S)-N-(1-(3-(4-chloro-1-methyl-3-(methylsulfonamido)-1H-indazol-7-yl)-7-(2-fluorophenyl)-4-oxo-3,4-dihydroquinazolin-2-yl)-2-(3,5-difluorophenyl)ethyl)-2-(1-isopropyl-1H-pyrazol-3-yl)acetamide], the EC50 in data set [1] was determined as 0.76 nM. Also, the half-maximal cytotoxic concentration (CC50) at 4 day in data set [2] is > 1000 nM.
As to `Cc1cccc(-c2ccc3c(=O)n(-c4ccc(Cl)c5c(NS(C)(=O)=O)nn(CC(F)F)c45)c([C@H](Cc4cc(F)cc(F)c4)NC(=O)Cn4nc(C(F)F)c5c4C(F)(F)[C@@H]4C[C@H]54)nc3c2)n1` [Example 175, N-((S)-1-(3-(4-chloro-1-(2,2-difluoroethyl)-3-(methylsulfonamido)-1H-indazol-7-yl)-7-(6-methylpyridin-2-yl)-4-oxo-3,4-dihydroquinazolin-2-yl)-2-(3,5-difluorophenyl)ethyl)-2-((3bS,4aR)-3-(difluoromethyl)-5,5-difluoro-3b,4,4a,5-tetrahydro-1H-cyclopropa[3,4]cyclopenta[1,2-c]pyrazol-1-yl)acetamide], the concentration giving a half-maximal response (EC50) in data set [1] turned out to be 0.08 nM. In addition, the CC50 at 4 day in data set [2] is > 500 nM.
